Assay results taken from US20250230153A1, “2,3-DIHYDROBENZO[B][1,4]DIOXIN-6-YL CONTAINING COMPOUNDS USEFUL AS IMMUNOMODULATORS” (BRISTOL-MYERS SQUIBB COMPANY, priority 2021, published 2025).
Where a name gives a salt, the structure may show the parent alone.

Target: PD-1/PD-L1 (Homo sapiens (Human), UniProt Q9NZQ7)
Test: PD-1/PD-L1 Homogenous Time-Resolved Fluorescence (HTRF) binding assay
Conditions: PD-1-Ig (20 nM final)/PD-L1-His (10 nM final) binding assay
Method in brief: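 Compounds pre-incubated 15 min with human PD-L1(18-239)-His (10 nM final), then 15 min with PD-1(25-167)-Ig (20 nM final), in dPBS with 0.1% BSA and 0.05% Tween-20. Detection with Eu-cryptate anti-Ig (1 nM) and APC anti-His (20 nM) after 30 min equilibration; 665/620 nm ratio read.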

PD-1/PD-L1, sequence (Q9NZQ7 18-239): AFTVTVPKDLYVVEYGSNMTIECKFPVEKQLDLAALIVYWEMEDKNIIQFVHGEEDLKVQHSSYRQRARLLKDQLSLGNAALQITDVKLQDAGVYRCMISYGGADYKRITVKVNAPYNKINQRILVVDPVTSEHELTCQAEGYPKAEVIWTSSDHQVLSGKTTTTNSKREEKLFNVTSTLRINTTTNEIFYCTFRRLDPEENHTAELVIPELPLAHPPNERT

Compound	IC50 [nM]
Cc1c(COc2cc(OCCN3CCCC(O)(C(F)(F)F)C3)c(CN[C@](C)(CO)C(=O)O)cc2Cl)cccc1-c1ccc2c(c1)OCCO2 (stereo partly drawn) [Example 1057, (2R)-2-((5-Chloro-4-((3-(2,3-dihydrobenzo[b][1,4]dioxin-6-yl)-2-methylbenzyl)oxy)-2-(2-(3-hydroxy-3-(trifluoromethyl)piperidin-1-yl)ethoxy)benzyl)amino)-3-hydroxy-2-methylpropanoic acid]	6.2
Cc1c(COc2cc(OCCN3CCCC(O)(C(F)(F)F)C3)c(CN3CCCC[C@H]3C(=O)O)cc2Cl)cccc1-c1ccc2c(c1)OCCO2 (stereo partly drawn) [Example 1058, (2S)-1-(5-Chloro-4-((3-(2,3-dihydrobenzo[b][1,4]dioxin-6-yl)-2-methylbenzyl)oxy)-2-(2-(3-hydroxy-3-(trifluoromethyl)piperidin-1-yl)ethoxy)benzyl)piperidine-2-carboxylic acid]	21.8
Cc1c(COc2cc(OCCN3CCS(=O)(=O)CC3)c(CN3CCCC[C@H]3C(=O)O)cc2Cl)cccc1-c1ccc2c(c1)OCCO2 [Example 1060, (S)-1-(5-chloro-4-((3-(2,3-dihydrobenzo[b][1,4]dioxin-6-yl)-2-methylbenzyl)oxy)-2-(2-(1,1-dioxidothiomorpholino)ethoxy)benzyl)piperidine-2-carboxylic acid]	9.2
Cc1c(COc2cc(OCC(=O)N3CCS(=O)(=O)CC3)c(CN3CCCC[C@H]3C(=O)O)cc2Cl)cccc1-c1ccc2c(c1)OCCO2 [Example 1061, (S)-1-(5-chloro-4-((3-(2,3-dihydrobenzo[b][1,4]dioxin-6-yl)-2-methylbenzyl)oxy)-2-(2-(1,1-dioxidothiomorpholino)-2-oxoethoxy)benzyl)piperidine-2-carboxylic acid]	455
Cc1c(COc2cc(OCCCN(C)C)c(CN[C@@](C)(CO)C(=O)O)cc2Cl)cccc1-c1ccc2c(c1)OCCO2 [Example 2001, (S)-2-((5-chloro-4-((3-(2,3-dihydrobenzo[b][1,4]dioxin-6-yl)-2-methylbenzyl)oxy)-2-(3-(dimethylamino)propoxy)benzyl)amino)-3-hydroxy-2-methylpropanoic acid]	9.5
Cc1c(COc2cc(OCCCN(C)C)c(CN[C@@H](CO)C(=O)O)cc2Cl)cccc1-c1ccc2c(c1)OCCO2 [Example 2002, (S)-2-((5-chloro-4-((3-(2,3-dihydrobenzo[b][1,4]dioxin-6-yl)-2-methylbenzyl)oxy)-2-(3-(dimethylamino)propoxy)benzyl)amino)-3-hydroxypropanoic acid]	6.5
Cc1c(COc2cc(OCC3CCCN(C)C3)c(CN[C@@](C)(CO)C(=O)O)cc2Cl)cccc1-c1ccc2c(c1)OCCO2 (stereo partly drawn) [Example 2003, (2S)-2-((5-chloro-4-((3-(2,3-dihydrobenzo[b][1,4]dioxin-6-yl)-2-methylbenzyl)oxy)-2-((1-methylpiperidin-3-yl)methoxy)benzyl)amino)-3-hydroxy-2-methylpropanoic acid]	6.5
Cc1c(COc2cc(OCc3cncc(C(=O)N[C@@H](CCCNC(=N)N)C(=O)O)c3)c(CN3CC[C@H](O)C3)cc2Cl)cccc1-c1ccc2c(c1)OCCO2 [Example 2010, (S)-2-(5-((4-chloro-5-((3-(2,3-dihydrobenzo[b][1,4]dioxin-6-yl)-2-methylbenzyl)oxy)-2-(((S)-3-hydroxypyrrolidin-1-yl)methyl)phenoxy)methyl)nicotinamido)-5-guanidinopentanoic acid]	6.5
Cc1c(COc2cc(OCC3CNCCO3)c(CN3CCCC[C@H]3C(=O)O)cc2Cl)cccc1-c1ccc2c(c1)OCCO2 (stereo partly drawn) [Example 2011, (2S)-1-(5-Chloro-4-((3-(2,3-dihydrobenzo[b][1,4]dioxin-6-yl)-2-methylbenzyl)oxy)-2-(morpholin-2-ylmethoxy)benzyl)piperidine-2-carboxylic acid acetic acid salt]	26.5
Cc1c(COc2cc(OCC3CCCN(C)C3)c(CN3CCCC[C@H]3C(=O)O)cc2Cl)cccc1-c1ccc2c(c1)OCCO2 (stereo partly drawn) [Example 2012, (2S)-1-(5-Chloro-4-((3-(2,3-dihydrobenzo[b][1,4]dioxin-6-yl)-2-methylbenzyl)oxy)-2-((1-methylpiperidin-3-yl)methoxy)benzyl)piperidine-2-carboxylic acid]	28.5

Now those with a lower IC50, led by results:

IC50 [nM]	Compound
1.8	Cc1c(COc2cc(OCCN3CCC(O)(C(=O)O)CC3)c(CN3CCCC[C@H]3C(=O)O)cc2Cl)cccc1-c1ccc2c(c1)OCCO2 [Example 1054, (S)-1-(2-(2-(4-Carboxy-4-hydroxypiperidin-1-yl)ethoxy)-5-chloro-4-((3-(2,3-dihydrobenzo[b]1[1,4]dioxin-6-yl)-2-methylbenzyl)oxy)benzyl)piperidine-2-carboxylic acid]
0.4	Cc1c(COc2cc(OCCN3CCC(O)(C(=O)O)CC3)c(CN[C@](C)(CO)C(=O)O)cc2Cl)cccc1-c1ccc2c(c1)OCCO2 [Example 1055, (R)-1-(2-(2-(((2-Carboxy-1-hydroxypropan-2-yl)amino)methyl)-4-chloro-5-((3-(2,3-dihydrobenzo[b]1[1,4]dioxin-6-yl)-2-methylbenzyl)oxy)phenoxy)ethyl)-4-hydroxypiperidine-4-carboxylic acid]
0.6	Cc1c(COc2cc(OCCN3CCC(O)(C(=O)O)CC3)c(CNC(C)(CO)CO)cc2Cl)cccc1-c1ccc2c(c1)OCCO2 [Example 1056, 1-(2-(4-Chloro-5-((3-(2,3-dihydrobenzo[b][1,4]dioxin-6-yl)-2-methylbenzyl)oxy)-2-(((1,3-dihydroxy-2-methylpropan-2-yl)amino)methyl)phenoxy)ethyl)-4-hydroxypiperidine-4-carboxylic acid]
2.2	Cc1c(COc2cc(OCCN3CCCC(O)(C(F)(F)F)C3)c(CNC(C)(CO)CO)cc2Cl)cccc1-c1ccc2c(c1)OCCO2 (stereo not drawn) [Example 1059, 2-((5-Chloro-4-((3-(2,3-dihydrobenzo[b][1,4]dioxin-6-yl)-2-methylbenzyl)oxy)-2-(2-(3-hydroxy-3-(trifluoromethyl)piperidin-1-yl)ethoxy)benzyl)amino)-2-methylpropane-1,3-diol]
5.8	Cc1c(COc2cc(OCC3CCCN(C)C3)c(CN[C@@H](CO)C(=O)O)cc2Cl)cccc1-c1ccc2c(c1)OCCO2 (stereo partly drawn) [Example 2004, (2S)-2-((5-chloro-4-((3-(2,3-dihydrobenzo[b][1,4]dioxin-6-yl)-2-methylbenzyl)oxy)-2-((1-methylpiperidin-3-yl)methoxy)benzyl)amino)-3-hydroxypropanoic acid]
3.4	Cc1c(COc2cc(OCc3cncc(C(=O)NCCCN(C)C)c3)c(CN3CC[C@H](O)C3)cc2Cl)cccc1-c1ccc2c(c1)OCCO2 [Example 2007, (S)-5-((4-chloro-5-((3-(2,3-dihydrobenzo[b][1,4]dioxin-6-yl)-2-methylbenzyl)oxy)-2-((3-hydroxypyrrolidin-1-yl)methyl)phenoxy)methyl)-N-(3-(dimethylamino)propyl)nicotinamide]
5.2	Cc1c(COc2cc(OCc3cncc(C(=O)NCCC(=O)O)c3)c(CN3CC[C@H](O)C3)cc2Cl)cccc1-c1ccc2c(c1)OCCO2 [Example 2008, (S)-3-(5-((4-chloro-5-((3-(2,3-dihydrobenzo[b][1,4]dioxin-6-yl)-2-methylbenzyl)oxy)-2-((3-hydroxypyrrolidin-1-yl)methyl)phenoxy)methyl)nicotinamido)propanoic acid]
4.6	Cc1c(COc2cc(OCc3cncc(C(=O)N[C@@H](CO)C(=O)O)c3)c(CN3CC[C@H](O)C3)cc2Cl)cccc1-c1ccc2c(c1)OCCO2 [Example 2009, (S)-2-(5-((4-chloro-5-((3-(2,3-dihydrobenzo[b][1,4]dioxin-6-yl)-2-methylbenzyl)oxy)-2-(((S)-3-hydroxypyrrolidin-1-yl)methyl)phenoxy)methyl)nicotinamido)-3-hydroxypropanoic acid]
